# Laboratory results as given in the Deep4Chem optical property database.
# Experiment: solvent given as SMILES
Compound,emission maximum (in ClCCl),emission maximum (in CO),emission maximum (in CC#N),emission maximum (in CCCCCC),emission maximum (in Cc1ccccc1),also measured
Cc1cc(N(C)C)cc(C)c1/C=C/C=C/c1ccc(C#N)cc1,,,599 nm,442 nm,,emission maximum (in CCOCC): 527 nm
Cc1cc(C)c(B(c2c(C)cc(C)cc2C)c2c(C)cc(-n3c4ccc(N(c5ccccc5)c5ccccc5)cc4c4cc(N(c5ccccc5)c5ccccc5)ccc43)cc2C)c(C)c1,,,,,495 nm,emission maximum (in O=P(c1ccccc1)(c1ccccc1)c1ccccc1Oc1ccccc1P(=O)(c1ccccc1)c1ccccc1): 487 nm
CC1=CC(c2ccc3cc(N(C)C)ccc3c2)=[O+][B-](F)(F)O1,574 nm,,611 nm,,521 nm,emission maximum (in C1CCOC1): 566 nm; emission maximum (in CC(C)=O): 492 nm; emission maximum (in CS(C)=O): 624 nm; emission maximum (in ClC(Cl)Cl): 552 nm
O=S(=O)(c1ccccc1)c1ccc(-c2ccc3c4ccc(-c5ccc(S(=O)(=O)c6ccccc6)cc5)cc4n(-c4ccccc4)c3c2)cc1,411 nm,434 nm,,409 nm,413 nm,emission maximum (in CN(C)C=O): 437 nm
CCCCCCc1cc2c(s1)-c1sc(CCCCCC)cc1P(c1ccccc1)(c1ccccc1)=[O+][B-]2(c1c(C)cc(C)cc1C)c1c(C)cc(C)cc1C,,,,,,emission maximum (in C1CCOC1): 536 nm

# Second part, led by results:
emission maximum (in ClCCl),emission maximum (in CO),Compound,emission maximum (in CC#N),emission maximum (in CCCCCC),emission maximum (in Cc1ccccc1),also measured
695 nm,,CC1=c2c3c4cccc5cccc(c=3c(C)[n+]2[B-](F)(F)n2c(C)c3cc6c(-c7ccccc7)c7c(c(-c8ccccc8)c6cc3c21)-c1cccc2cccc-7c12)c54,,,,
531 nm,526 nm,COc1ccc2n1[B-](F)(F)[N+]1=C(SC#N)C=CC1=C2c1ccccc1,527 nm,532 nm,,emission maximum (in CCOC(C)=O): 529 nm
566 nm,,FC(F)(F)C(F)(F)C(F)(F)C(F)(F)C(F)(F)C(F)(F)CCOc1nnc(Cl)nn1,,,,emission maximum (in OCC(F)(F)F): 555 nm
477 nm,487 nm,N#Cc1ccc(-c2nc(-c3ccccc3)c3ccccn23)cc1,453 nm,,,emission maximum (in C1CCCCC1): 444 nm; emission maximum (in O): 470 nm
,814 nm,CC1(C)C(/C=C/C2=C(Cl)C(=C/C=C3/N(Cc4ccc(C(=O)O)cc4)c4ccccc4C3(C)C)/CCC2)=[N+](Cc2ccc(C(=O)O)cc2)c2ccccc21,,,,
